{
  "source": "paper PMC12477080",
  "about": "“Polychlorinated biphenyls (PCBs) interact with drug metabolism in vivo” (Archives of Toxicology, 2025)",
  "experiment": "Stability of substrates and metabolites in quality control samples (benchtop, autosampler, freeze-thaw)",
  "format": "physicochemical",
  "conditions": "for Autosampler stability (24 h) Av. Accuracy (%): 10° C for 24 hours in the autosampler; for 3x freeze-thaw Av. Accuracy (%): after three freeze-thaw cycles; for Benchtop stability (19 h) Ac. Accuracy (%): room temperature for 19 hours",
  "description": "The method was validated for intra- and interday accuracy and precision, stability, and matrix effects. […] Validation details are provided in Supplementary Tables 5–7 and supplemental Fig. 3. Glucuronidase/sulfatase digests were used to isolate CYP-specific metabolic activities, reducing interference from polymorphic UDP-glucuronosyltransferase (UGT) and sulfotransferase isoforms.\nSupplemental table 6: Stability of the substrates and metabolites. Quality control samples were left at room temperature for 19 hours (benchtop stability) and at 10° C for 24 hours in the autosampler (autosampler stability) or were measured after three freeze-thaw cycles. Stability samples were measured against a freshly prepared set of calibrators and quality control samples.",
  "data": [
    {"molecule": "O=C1Nc2ccc(Cl)cc2[C@@](C#CC2CC2)(C(F)(F)F)O1", "note": "[efavirenz, reference compound]", "values": [
      {"measurement": "Autosampler stability (24 h) Av. Accuracy (%)", "setting": "QC conc. 0,63 ng/ml", "result": "109,58%"},
      {"measurement": "3x freeze-thaw Av. Accuracy (%)", "setting": "QC conc. 0,63 ng/ml", "result": "124,41%"},
      {"measurement": "Benchtop stability (19 h) Ac. Accuracy (%)", "setting": "QC conc. 0,63 ng/ml", "result": "92,21%"},
      {"measurement": "Autosampler stability (24 h) Av. Accuracy (%)", "setting": "QC conc. 150 ng/ml", "result": "115,3%"},
      {"measurement": "3x freeze-thaw Av. Accuracy (%)", "setting": "QC conc. 150 ng/ml", "result": "112,08%"},
      {"measurement": "Benchtop stability (19 h) Ac. Accuracy (%)", "setting": "QC conc. 150 ng/ml", "result": "111,5%"},
      {"measurement": "Autosampler stability (24 h) Av. Accuracy (%)", "setting": "QC conc. 375 ng/ml", "result": "106,16%"},
      {"measurement": "3x freeze-thaw Av. Accuracy (%)", "setting": "QC conc. 375 ng/ml", "result": "107,17%"},
      {"measurement": "Benchtop stability (19 h) Ac. Accuracy (%)", "setting": "QC conc. 375 ng/ml", "result": "104,9%"},
      {"measurement": "Autosampler stability (24 h) Av. Accuracy (%)", "setting": "QC conc. 1,25 ng/ml", "result": "114,46%"},
      {"measurement": "3x freeze-thaw Av. Accuracy (%)", "setting": "QC conc. 1,25 ng/ml", "result": "117,78%"},
      {"measurement": "Benchtop stability (19 h) Ac. Accuracy (%)", "setting": "QC conc. 1,25 ng/ml", "result": "102,48%"},
      {"measurement": "Autosampler stability (24 h) Av. Accuracy (%)", "setting": "QC conc. 3,75 ng/ml", "result": "114,56%"},
      {"measurement": "3x freeze-thaw Av. Accuracy (%)", "setting": "QC conc. 3,75 ng/ml", "result": "111,15%"},
      {"measurement": "Benchtop stability (19 h) Ac. Accuracy (%)", "setting": "QC conc. 3,75 ng/ml", "result": "107,06%"}
    ]},
    {"molecule": "COCCc1ccc(OCC(O)CNC(C)C)cc1", "note": "(stereo not shown) [metoprolol, reference compound]", "values": [
      {"measurement": "Autosampler stability (24 h) Av. Accuracy (%)", "setting": "QC conc. 0,5 ng/ml", "result": "105,36%"},
      {"measurement": "3x freeze-thaw Av. Accuracy (%)", "setting": "QC conc. 0,5 ng/ml", "result": "109,56%"},
      {"measurement": "Benchtop stability (19 h) Ac. Accuracy (%)", "setting": "QC conc. 0,5 ng/ml", "result": "106,29%"},
      {"measurement": "Autosampler stability (24 h) Av. Accuracy (%)", "setting": "QC conc. 0,25 ng/ml", "result": "105,01%"},
      {"measurement": "3x freeze-thaw Av. Accuracy (%)", "setting": "QC conc. 0,25 ng/ml", "result": "99,7%"},
      {"measurement": "Benchtop stability (19 h) Ac. Accuracy (%)", "setting": "QC conc. 0,25 ng/ml", "result": "92,77%"},
      {"measurement": "Autosampler stability (24 h) Av. Accuracy (%)", "setting": "QC conc. 60 ng/ml", "result": "111,39%"},
      {"measurement": "3x freeze-thaw Av. Accuracy (%)", "setting": "QC conc. 60 ng/ml", "result": "105,26%"},
      {"measurement": "Benchtop stability (19 h) Ac. Accuracy (%)", "setting": "QC conc. 60 ng/ml", "result": "110,41%"},
      {"measurement": "Autosampler stability (24 h) Av. Accuracy (%)", "setting": "QC conc. 150 ng/ml", "result": "100,37%"},
      {"measurement": "3x freeze-thaw Av. Accuracy (%)", "setting": "QC conc. 150 ng/ml", "result": "98,84%"},
      {"measurement": "Benchtop stability (19 h) Ac. Accuracy (%)", "setting": "QC conc. 150 ng/ml", "result": "102,76%"},
      {"measurement": "Autosampler stability (24 h) Av. Accuracy (%)", "setting": "QC conc. 1,5 ng/ml", "result": "112,83%"},
      {"measurement": "3x freeze-thaw Av. Accuracy (%)", "setting": "QC conc. 1,5 ng/ml", "result": "103,63%"},
      {"measurement": "Benchtop stability (19 h) Ac. Accuracy (%)", "setting": "QC conc. 1,5 ng/ml", "result": "111,4%"}
    ]},
    {"molecule": "OCc1ncc2n1-c1ccc(Cl)cc1C(c1ccccc1F)=NC2", "note": "[1-OH-midazolam]", "values": [
      {"measurement": "Autosampler stability (24 h) Av. Accuracy (%)", "setting": "QC conc. 0,2 ng/ml", "result": "102,59%"},
      {"measurement": "3x freeze-thaw Av. Accuracy (%)", "setting": "QC conc. 0,2 ng/ml", "result": "108,6%"},
      {"measurement": "Benchtop stability (19 h) Ac. Accuracy (%)", "setting": "QC conc. 0,2 ng/ml", "result": "82,15%"},
      {"measurement": "Autosampler stability (24 h) Av. Accuracy (%)", "setting": "QC conc. 0,6 ng/ml", "result": "107,25%"},
      {"measurement": "3x freeze-thaw Av. Accuracy (%)", "setting": "QC conc. 0,6 ng/ml", "result": "109,36%"},
      {"measurement": "Benchtop stability (19 h) Ac. Accuracy (%)", "setting": "QC conc. 0,6 ng/ml", "result": "102,06%"},
      {"measurement": "Autosampler stability (24 h) Av. Accuracy (%)", "setting": "QC conc. 24 ng/ml", "result": "113,74%"},
      {"measurement": "3x freeze-thaw Av. Accuracy (%)", "setting": "QC conc. 24 ng/ml", "result": "106,45%"},
      {"measurement": "Benchtop stability (19 h) Ac. Accuracy (%)", "setting": "QC conc. 24 ng/ml", "result": "112,46%"},
      {"measurement": "Autosampler stability (24 h) Av. Accuracy (%)", "setting": "QC conc. 60 ng/ml", "result": "105,87%"},
      {"measurement": "3x freeze-thaw Av. Accuracy (%)", "setting": "QC conc. 60 ng/ml", "result": "100,47%"},
      {"measurement": "Benchtop stability (19 h) Ac. Accuracy (%)", "setting": "QC conc. 60 ng/ml", "result": "105,11%"}
    ]},
    {"molecule": "Cn1c(=O)c2c(ncn2C)n(C)c1=O", "note": "[caffeine, reference compound]", "values": [
      {"measurement": "3x freeze-thaw Av. Accuracy (%)", "setting": "QC conc. 10 ng/ml", "result": "107,62%"},
      {"measurement": "3x freeze-thaw Av. Accuracy (%)", "setting": "QC conc. 30 ng/ml", "result": "107,18%"},
      {"measurement": "3x freeze-thaw Av. Accuracy (%)", "setting": "QC conc. 1200 ng/ml", "result": "105,12%"},
      {"measurement": "3x freeze-thaw Av. Accuracy (%)", "setting": "QC conc. 3000 ng/ml", "result": "97,54%"}
    ]},
    {"molecule": "COCC(O)c1ccc(OCC(O)CNC(C)C)cc1", "note": "(stereo not shown) [OH-metoprolol]", "values": [
      {"measurement": "Autosampler stability (24 h) Av. Accuracy (%)", "setting": "QC conc. 0,5 ng/ml", "result": "101,05%"},
      {"measurement": "3x freeze-thaw Av. Accuracy (%)", "setting": "QC conc. 0,5 ng/ml", "result": "95,27%"},
      {"measurement": "Benchtop stability (19 h) Ac. Accuracy (%)", "setting": "QC conc. 0,5 ng/ml", "result": "90,1%"},
      {"measurement": "Autosampler stability (24 h) Av. Accuracy (%)", "setting": "QC conc. 0,25 ng/ml", "result": "90,24%"},
      {"measurement": "3x freeze-thaw Av. Accuracy (%)", "setting": "QC conc. 0,25 ng/ml", "result": "85,17%"},
      {"measurement": "Benchtop stability (19 h) Ac. Accuracy (%)", "setting": "QC conc. 0,25 ng/ml", "result": "81,14%"},
      {"measurement": "Autosampler stability (24 h) Av. Accuracy (%)", "setting": "QC conc. 60 ng/ml", "result": "97,01%"},
      {"measurement": "3x freeze-thaw Av. Accuracy (%)", "setting": "QC conc. 60 ng/ml", "result": "91,98%"},
      {"measurement": "Benchtop stability (19 h) Ac. Accuracy (%)", "setting": "QC conc. 60 ng/ml", "result": "95,47%"},
      {"measurement": "Autosampler stability (24 h) Av. Accuracy (%)", "setting": "QC conc. 150 ng/ml", "result": "88,29%"},
      {"measurement": "3x freeze-thaw Av. Accuracy (%)", "setting": "QC conc. 150 ng/ml", "result": "87,96%"},
      {"measurement": "Benchtop stability (19 h) Ac. Accuracy (%)", "setting": "QC conc. 150 ng/ml", "result": "88,26%"},
      {"measurement": "Autosampler stability (24 h) Av. Accuracy (%)", "setting": "QC conc. 1,5 ng/ml", "result": "96,56%"},
      {"measurement": "3x freeze-thaw Av. Accuracy (%)", "setting": "QC conc. 1,5 ng/ml", "result": "95,33%"},
      {"measurement": "Benchtop stability (19 h) Ac. Accuracy (%)", "setting": "QC conc. 1,5 ng/ml", "result": "94,57%"}
    ]}
  ]
}
